Tests used:
[1] = system: IL-2 stimulated pSTAT5 in Tall-1 T cells; assay: Cellular JAK3 potency assay: inhibition of IL-2 stimulated pSTAT5 in Tall-1 T cells; format: cell-based, human; conditions: IL-2 stimulated pSTAT5, Tall-1 T cells
In short: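 In human Tall-1 T cells, IL-2 (300 ng/ml final, 30 min) drives STAT5 phosphorylation after a 1 h compound pretreatment. Lysates are assayed for pSTAT5 by AlphaLisa, and IC50 derived from signal versus concentration is expressed as pIC50.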

JAK2 = target: T1, JAK2 (Homo sapiens, UniProt O60674); assay: Biochemical JAK2 kinase assay (LanthaScreen)
T1 construct: GST; purchased Life Technologies
In short: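 GST-tagged recombinant JAK2 pre-incubated 1 h at ambient temperature with compound and GFP-STAT1 peptide in HEPES pH 7.5/MgCl2 buffer, then ATP added for a 1 h reaction with 1% DMSO. TR-FRET read after EDTA and Tb-anti-pSTAT1 (pTyr701) addition; IC50 from 4-parameter fit, converted to pKi by Cheng-Prusoff.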

JAK1 = target: T2, JAK1 (Homo sapiens, UniProt P23458); assay: Biochemical JAK1 kinase assay (LanthaScreen)
T2 construct: GST; purchased Life Technologies
In short: (§1)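 Compounds were preincubated with the GST-tagged kinase and GFP-labelled STAT1 peptide for one hour before ATP initiated a one-hour reaction at ambient temperature. Phosphorylation was quantified by TR-FRET with a Tb-labelled pTyr701 antibody. Ki values were derived from IC50 using Cheng-Prusoff.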

Tyk2 = target: T3, Tyk2 (Homo sapiens, UniProt P29597); assay: Biochemical Tyk2 kinase assay (LanthaScreen)
T3 construct: GST; purchased Life Technologies
In short: as §1

JAK3 = target: T4, JAK3 (Homo sapiens, UniProt P52333); assay: Biochemical JAK3 kinase assay (LanthaScreen); set-up: GST; purchased Life Technologies; conditions: for JAK3 (pKi)-JAK1 (pKi): selectivity JAK3 over JAK1, difference of pKi
T4 sequence (P52333 1-1124): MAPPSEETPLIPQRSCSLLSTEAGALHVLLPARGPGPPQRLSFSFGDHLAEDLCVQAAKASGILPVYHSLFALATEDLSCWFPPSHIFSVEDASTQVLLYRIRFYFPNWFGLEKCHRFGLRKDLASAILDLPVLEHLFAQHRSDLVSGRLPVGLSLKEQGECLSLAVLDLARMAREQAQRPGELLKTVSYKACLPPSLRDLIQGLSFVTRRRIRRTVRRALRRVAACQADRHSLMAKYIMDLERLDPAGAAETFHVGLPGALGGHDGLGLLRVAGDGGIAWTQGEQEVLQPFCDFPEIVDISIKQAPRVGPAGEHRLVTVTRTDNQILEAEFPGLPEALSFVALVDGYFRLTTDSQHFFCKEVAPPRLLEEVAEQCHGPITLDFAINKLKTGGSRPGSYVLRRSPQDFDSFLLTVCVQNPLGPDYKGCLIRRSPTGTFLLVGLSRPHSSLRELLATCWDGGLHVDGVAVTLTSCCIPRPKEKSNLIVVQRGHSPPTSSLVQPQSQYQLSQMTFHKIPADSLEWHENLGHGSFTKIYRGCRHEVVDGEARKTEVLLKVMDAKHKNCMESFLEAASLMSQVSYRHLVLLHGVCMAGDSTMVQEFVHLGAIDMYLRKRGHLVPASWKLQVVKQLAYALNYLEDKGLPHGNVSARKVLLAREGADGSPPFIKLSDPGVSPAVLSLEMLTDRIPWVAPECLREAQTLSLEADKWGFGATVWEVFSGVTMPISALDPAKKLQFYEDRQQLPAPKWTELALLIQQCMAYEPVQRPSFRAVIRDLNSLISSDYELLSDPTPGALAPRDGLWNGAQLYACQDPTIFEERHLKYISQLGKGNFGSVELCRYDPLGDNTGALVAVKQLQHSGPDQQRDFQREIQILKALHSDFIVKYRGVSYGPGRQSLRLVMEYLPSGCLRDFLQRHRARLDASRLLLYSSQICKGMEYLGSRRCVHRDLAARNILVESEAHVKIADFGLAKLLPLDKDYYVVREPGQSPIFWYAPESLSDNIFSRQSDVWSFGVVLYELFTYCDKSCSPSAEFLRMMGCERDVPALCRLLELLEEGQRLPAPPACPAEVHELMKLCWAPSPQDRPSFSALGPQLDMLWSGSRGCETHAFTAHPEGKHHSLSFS
In short: as §1

T2 sequence (P23458 whole entry): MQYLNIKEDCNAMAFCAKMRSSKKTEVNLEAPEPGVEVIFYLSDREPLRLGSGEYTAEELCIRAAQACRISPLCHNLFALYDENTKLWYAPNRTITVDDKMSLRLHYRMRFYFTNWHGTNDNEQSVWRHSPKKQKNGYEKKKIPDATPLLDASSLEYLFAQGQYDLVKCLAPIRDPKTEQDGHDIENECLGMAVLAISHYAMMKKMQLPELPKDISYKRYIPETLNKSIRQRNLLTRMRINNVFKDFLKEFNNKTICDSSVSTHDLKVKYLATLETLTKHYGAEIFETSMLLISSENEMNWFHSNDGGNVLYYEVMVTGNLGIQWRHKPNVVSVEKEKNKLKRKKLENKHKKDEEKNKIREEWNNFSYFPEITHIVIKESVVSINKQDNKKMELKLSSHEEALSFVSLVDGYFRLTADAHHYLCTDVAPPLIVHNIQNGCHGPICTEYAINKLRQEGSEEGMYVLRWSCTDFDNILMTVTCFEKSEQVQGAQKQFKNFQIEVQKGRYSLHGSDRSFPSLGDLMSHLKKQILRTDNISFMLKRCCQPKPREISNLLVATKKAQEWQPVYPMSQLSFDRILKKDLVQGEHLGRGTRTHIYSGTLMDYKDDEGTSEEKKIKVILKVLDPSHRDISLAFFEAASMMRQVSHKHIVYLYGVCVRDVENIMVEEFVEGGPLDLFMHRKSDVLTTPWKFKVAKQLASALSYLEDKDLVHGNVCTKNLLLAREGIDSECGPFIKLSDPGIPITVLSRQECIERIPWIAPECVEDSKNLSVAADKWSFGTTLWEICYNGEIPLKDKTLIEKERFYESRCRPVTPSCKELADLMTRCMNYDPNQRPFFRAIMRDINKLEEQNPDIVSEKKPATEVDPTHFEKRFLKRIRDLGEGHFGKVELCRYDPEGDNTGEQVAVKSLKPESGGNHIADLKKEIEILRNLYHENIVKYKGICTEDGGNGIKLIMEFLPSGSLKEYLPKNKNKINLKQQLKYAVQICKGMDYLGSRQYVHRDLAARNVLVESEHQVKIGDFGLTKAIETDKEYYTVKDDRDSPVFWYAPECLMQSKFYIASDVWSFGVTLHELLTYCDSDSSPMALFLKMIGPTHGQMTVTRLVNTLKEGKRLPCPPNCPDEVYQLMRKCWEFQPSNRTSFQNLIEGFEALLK
T1 sequence (O60674 whole entry): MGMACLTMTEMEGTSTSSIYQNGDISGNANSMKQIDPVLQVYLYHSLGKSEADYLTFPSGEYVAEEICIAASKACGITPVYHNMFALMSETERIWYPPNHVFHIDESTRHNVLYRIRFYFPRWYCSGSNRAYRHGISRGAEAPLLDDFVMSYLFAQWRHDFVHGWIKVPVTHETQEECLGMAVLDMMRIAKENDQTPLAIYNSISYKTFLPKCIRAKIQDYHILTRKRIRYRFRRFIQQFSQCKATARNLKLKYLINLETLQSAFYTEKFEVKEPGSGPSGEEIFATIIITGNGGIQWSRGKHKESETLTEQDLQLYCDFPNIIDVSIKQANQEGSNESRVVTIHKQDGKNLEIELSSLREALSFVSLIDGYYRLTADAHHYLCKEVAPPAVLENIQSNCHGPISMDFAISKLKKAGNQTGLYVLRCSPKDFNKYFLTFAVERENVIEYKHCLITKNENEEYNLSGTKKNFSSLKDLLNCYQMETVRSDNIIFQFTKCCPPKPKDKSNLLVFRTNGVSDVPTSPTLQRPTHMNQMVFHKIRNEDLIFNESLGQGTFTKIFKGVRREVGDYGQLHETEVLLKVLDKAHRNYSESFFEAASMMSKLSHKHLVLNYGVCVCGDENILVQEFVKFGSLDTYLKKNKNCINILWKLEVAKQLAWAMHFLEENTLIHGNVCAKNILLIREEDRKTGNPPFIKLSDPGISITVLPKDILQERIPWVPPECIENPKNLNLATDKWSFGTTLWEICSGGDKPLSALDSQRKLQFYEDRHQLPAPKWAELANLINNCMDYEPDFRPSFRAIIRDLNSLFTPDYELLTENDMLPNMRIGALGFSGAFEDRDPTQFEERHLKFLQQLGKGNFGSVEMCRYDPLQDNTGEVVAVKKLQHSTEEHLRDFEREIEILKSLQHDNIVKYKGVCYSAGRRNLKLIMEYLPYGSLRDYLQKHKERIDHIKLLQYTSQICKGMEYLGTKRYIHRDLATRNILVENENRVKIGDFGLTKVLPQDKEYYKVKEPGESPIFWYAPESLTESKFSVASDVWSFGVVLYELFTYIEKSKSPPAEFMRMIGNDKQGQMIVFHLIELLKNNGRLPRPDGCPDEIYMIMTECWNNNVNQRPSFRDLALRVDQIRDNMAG
T3 sequence (P29597 whole entry): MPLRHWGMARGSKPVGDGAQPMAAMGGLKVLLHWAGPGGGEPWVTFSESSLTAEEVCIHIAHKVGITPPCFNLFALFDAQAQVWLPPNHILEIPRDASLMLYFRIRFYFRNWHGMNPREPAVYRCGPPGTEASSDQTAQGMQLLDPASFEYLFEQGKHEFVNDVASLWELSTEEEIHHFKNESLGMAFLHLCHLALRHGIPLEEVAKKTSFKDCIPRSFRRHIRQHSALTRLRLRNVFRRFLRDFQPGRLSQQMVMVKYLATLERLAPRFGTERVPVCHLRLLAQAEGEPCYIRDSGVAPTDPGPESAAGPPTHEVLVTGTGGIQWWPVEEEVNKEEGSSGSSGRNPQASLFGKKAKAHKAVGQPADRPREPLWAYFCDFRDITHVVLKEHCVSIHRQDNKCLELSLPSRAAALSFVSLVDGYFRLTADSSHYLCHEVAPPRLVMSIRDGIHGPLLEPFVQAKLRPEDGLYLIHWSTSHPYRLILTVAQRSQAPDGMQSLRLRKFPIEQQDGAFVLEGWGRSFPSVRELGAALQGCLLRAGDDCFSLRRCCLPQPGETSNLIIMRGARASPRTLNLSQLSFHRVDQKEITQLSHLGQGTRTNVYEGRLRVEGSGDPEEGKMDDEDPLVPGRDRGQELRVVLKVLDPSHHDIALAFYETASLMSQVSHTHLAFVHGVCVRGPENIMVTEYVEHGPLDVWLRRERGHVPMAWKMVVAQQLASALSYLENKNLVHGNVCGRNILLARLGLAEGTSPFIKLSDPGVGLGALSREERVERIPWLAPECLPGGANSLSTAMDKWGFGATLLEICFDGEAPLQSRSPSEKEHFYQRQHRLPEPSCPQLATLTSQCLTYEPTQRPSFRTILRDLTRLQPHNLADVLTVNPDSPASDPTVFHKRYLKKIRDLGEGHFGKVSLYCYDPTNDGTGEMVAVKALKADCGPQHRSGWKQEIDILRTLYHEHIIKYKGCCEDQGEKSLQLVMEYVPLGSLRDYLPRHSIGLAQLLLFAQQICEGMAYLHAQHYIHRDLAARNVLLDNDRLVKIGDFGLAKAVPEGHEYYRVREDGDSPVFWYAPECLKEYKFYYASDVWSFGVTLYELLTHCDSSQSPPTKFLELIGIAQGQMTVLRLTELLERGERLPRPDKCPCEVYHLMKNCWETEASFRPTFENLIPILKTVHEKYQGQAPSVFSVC

Row | SMILES | Tall-1 (pIC50) [1] | JAK 2 (pKi) (JAK2) | JAK 1 (pKi) (JAK1) | Tyk 2 (pKi) (Tyk2) | JAK 3 (pKi) (JAK3) | JAK3 (pKi)-JAK1 (pKi) (JAK3)
1 | C=CC(=O)N1CCC(N(C)c2cc(-c3ccc(O)c(F)c3)cc3[nH]ncc23)CC1 [Compound 7-10] | B (a pIC50 value between 6.7 (included) and 7.5 (IC50 between 200 nM and 32 nM)) | D (a pKi value between 7 and 8 (Ki between 100 nM and 10 nM)) | E (a pKi value of 7 or below (Ki of 100 nM or above)) | E (a pKi value of 7 or below (Ki of 100 nM or above)) | B (a pKi value between 9 and 10 (Ki between 1 nM and 0.1 nM)) | A (a value of 3 or above)
2 | C=CC(=O)N1CCC(C)(Nc2cc(-c3ccc(O)c(Cl)c3)cc3[nH]ncc23)CC1 [Compound 7-11] | A (a pIC50 value≥7.5 (IC50≤32 nM)) | D (a pKi value between 7 and 8 (Ki between 100 nM and 10 nM)) | E (a pKi value of 7 or below (Ki of 100 nM or above)) | E (a pKi value of 7 or below (Ki of 100 nM or above)) | A (a pKi value≥10 (Ki≤0.1 nM)) | A (a value of 3 or above)
3 | CN(C)C/C=C/C(=O)N1CCC(C)(Nc2cc(-c3ccc(O)c(F)c3)cc3[nH]ncc23)CC1 [Compound 7-12] | B (a pIC50 value between 6.7 (included) and 7.5 (IC50 between 200 nM and 32 nM)) | D (a pKi value between 7 and 8 (Ki between 100 nM and 10 nM)) | E (a pKi value of 7 or below (Ki of 100 nM or above)) | E (a pKi value of 7 or below (Ki of 100 nM or above)) | B (a pKi value between 9 and 10 (Ki between 1 nM and 0.1 nM)) | A (a value of 3 or above)
4 | C=CC(=O)N1CCC(C)(Nc2nc(-c3ccc(O)cc3)cc3[nH]ncc23)CC1 [Compound 7-13] | A (a pIC50 value≥7.5 (IC50≤32 nM)) | D (a pKi value between 7 and 8 (Ki between 100 nM and 10 nM)) | E (a pKi value of 7 or below (Ki of 100 nM or above)) | E (a pKi value of 7 or below (Ki of 100 nM or above)) | A (a pKi value≥10 (Ki≤0.1 nM)) | A (a value of 3 or above)
5 | C=CC(=O)N1CCC(C)(Nc2nc(-c3ccc(O)c(Cl)c3)cc3[nH]ncc23)CC1 [Compound 7-14] | A (a pIC50 value≥7.5 (IC50≤32 nM)) | D (a pKi value between 7 and 8 (Ki between 100 nM and 10 nM)) | E (a pKi value of 7 or below (Ki of 100 nM or above)) | E (a pKi value of 7 or below (Ki of 100 nM or above)) | B (a pKi value between 9 and 10 (Ki between 1 nM and 0.1 nM)) | B (a value of 2.3 to 3)
6 | C=CC(=O)N1CCCC(Oc2cc(-c3ccc(O)cc3)cc3[nH]ncc23)C1 (stereo not drawn) [Compound 8-1] | A (a pIC50 value≥7.5 (IC50≤32 nM)) | D (a pKi value between 7 and 8 (Ki between 100 nM and 10 nM)) | E (a pKi value of 7 or below (Ki of 100 nM or above)) | E (a pKi value of 7 or below (Ki of 100 nM or above)) | B (a pKi value between 9 and 10 (Ki between 1 nM and 0.1 nM)) | B (a value of 2.3 to 3)
7 | CN(C)CC=CC(=O)N1CCCC(Oc2cc(-c3ccc(O)c(Cl)c3)cc3[nH]ncc23)C1 (stereo not drawn) [Compound 8-2] | B (a pIC50 value between 6.7 (included) and 7.5 (IC50 between 200 nM and 32 nM)) | D (a pKi value between 7 and 8 (Ki between 100 nM and 10 nM)) | E (a pKi value of 7 or below (Ki of 100 nM or above)) | E (a pKi value of 7 or below (Ki of 100 nM or above)) | B (a pKi value between 9 and 10 (Ki between 1 nM and 0.1 nM)) | A (a value of 3 or above)
8 | C=CC(=O)N1CCCC(Oc2cc(-c3ccc(O)c(Cl)c3)cc3[nH]ncc23)C1 (stereo not drawn) [Compound 8-3] | A (a pIC50 value≥7.5 (IC50≤32 nM)) | D (a pKi value between 7 and 8 (Ki between 100 nM and 10 nM)) | E (a pKi value of 7 or below (Ki of 100 nM or above)) | E (a pKi value of 7 or below (Ki of 100 nM or above)) | B (a pKi value between 9 and 10 (Ki between 1 nM and 0.1 nM)) | A (a value of 3 or above)
9 | CN(C)CC=CC(=O)N1CCCC(Oc2cc(-c3ccc(O)c(F)c3)cc3[nH]ncc23)C1 (stereo not drawn) [Compound 8-4] | B (a pIC50 value between 6.7 (included) and 7.5 (IC50 between 200 nM and 32 nM)) | D (a pKi value between 7 and 8 (Ki between 100 nM and 10 nM)) | E (a pKi value of 7 or below (Ki of 100 nM or above)) | E (a pKi value of 7 or below (Ki of 100 nM or above)) | B (a pKi value between 9 and 10 (Ki between 1 nM and 0.1 nM)) | B (a value of 2.3 to 3)
10 | C=CC(=O)N1CCCC(Oc2cc(-c3ccc(O)c(F)c3)cc3[nH]ncc23)C1 (stereo not drawn) [Compound 8-5] | A (a pIC50 value≥7.5 (IC50≤32 nM)) | D (a pKi value between 7 and 8 (Ki between 100 nM and 10 nM)) | E (a pKi value of 7 or below (Ki of 100 nM or above)) | E (a pKi value of 7 or below (Ki of 100 nM or above)) | A (a pKi value≥10 (Ki≤0.1 nM)) | A (a value of 3 or above)
11 | C=CC(=O)N1CCCC(Oc2nc(-c3ccc(O)cc3)cc3[nH]ncc23)C1 (stereo not drawn) [Compound 8-7] | B (a pIC50 value between 6.7 (included) and 7.5 (IC50 between 200 nM and 32 nM)) | D (a pKi value between 7 and 8 (Ki between 100 nM and 10 nM)) | E (a pKi value of 7 or below (Ki of 100 nM or above)) | E (a pKi value of 7 or below (Ki of 100 nM or above)) | B (a pKi value between 9 and 10 (Ki between 1 nM and 0.1 nM)) | A (a value of 3 or above)
12 | C=CC(=O)N1CCC[C@H](Oc2nc(-c3ccc(O)c(F)c3)cc3[nH]ncc23)C1 [Compound 8-11] | A (a pIC50 value≥7.5 (IC50≤32 nM)) | D (a pKi value between 7 and 8 (Ki between 100 nM and 10 nM)) | D (a pKi value between 7 and 8 (Ki between 100 nM and 10 nM)) | E (a pKi value of 7 or below (Ki of 100 nM or above)) | A (a pKi value≥10 (Ki≤0.1 nM)) | B (a value of 2.3 to 3)
13 | C=CC(=O)N1CCC[C@H](Oc2cc(-c3ccc(O)c(Cl)c3)nc3[nH]ncc23)C1 [Compound 8-14] | B (a pIC50 value between 6.7 (included) and 7.5 (IC50 between 200 nM and 32 nM)) | E (a pKi value of 7 or below (Ki of 100 nM or above)) | E (a pKi value of 7 or below (Ki of 100 nM or above)) | E (a pKi value of 7 or below (Ki of 100 nM or above)) | A (a pKi value≥10 (Ki≤0.1 nM)) | A (a value of 3 or above)
14 | C=CC(=O)N1C2CCC1CC(Oc1cc(-c3ccc(O)cc3)cc3[nH]ncc13)C2 (stereo not drawn) [Compound 9-1] | A (a pIC50 value≥7.5 (IC50≤32 nM)) | D (a pKi value between 7 and 8 (Ki between 100 nM and 10 nM)) | E (a pKi value of 7 or below (Ki of 100 nM or above)) | E (a pKi value of 7 or below (Ki of 100 nM or above)) | A (a pKi value≥10 (Ki≤0.1 nM)) | A (a value of 3 or above)

Reference: US10392368B2, “Pyrazolo and triazolo bicyclic compounds as JAK kinase inhibitors” (THERAVANCE BIOPHARMA R&D IP, LLC, priority 2017, dated 2019)
